# Experiments:
# Test in all cases: relative viability (nuclei count vs DMSO), 5 days (fraction); higher = more cells survive
# Pemetrexed + Alpelisib = compound: Nc1nc2[nH]cc(CCc3ccc(C(=O)N[C@@H](CCC(=O)O)C(=O)O)cc3)c2c(=O)[nH]1 [Pemetrexed] + Cc1nc(NC(=O)N2CCC[C@H]2C(N)=O)sc1-c1ccnc(C(C)(C)C(F)(F)F)c1 [Alpelisib] (partner 2 µM)
# Summary of the method: (§1)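 Lung cancer cell lines were seeded in 1536-well plates and dosed by pin tool the next day, with either a single drug or a fixed anchor-drug dose combined with five library-drug doses (not always all listed) spaced in √10 steps. Five days later, one step fixed the cells and stained their nuclei (final 0.05% Triton X-100, 1% formaldehyde, 1 ug/ml Hoechst), and nuclei were counted on 4× images. Relative viability is the nuclei count in treated wells divided by the count in vehicle wells, and each value is the median of duplicate plates.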
# Pemetrexed + Vorinostat = compound: Nc1nc2[nH]cc(CCc3ccc(C(=O)N[C@@H](CCC(=O)O)C(=O)O)cc3)c2c(=O)[nH]1 [Pemetrexed] + O=C(CCCCCCC(=O)Nc1ccccc1)NO [Vorinostat] (partner 1 µM)
# Summary of the method: as §1
# Pemetrexed + OSI-027 = compound: Nc1nc2[nH]cc(CCc3ccc(C(=O)N[C@@H](CCC(=O)O)C(=O)O)cc3)c2c(=O)[nH]1 [Pemetrexed] + COc1cccc2cc(-c3nc([C@H]4CC[C@H](C(=O)O)CC4)n4ncnc(N)c34)[nH]c12 [OSI-027] (partner 0.5 µM)
# Summary of the method: as §1
# Idelalisib + Decitabine = compound: CC[C@H](Nc1ncnc2[nH]cnc12)c1nc2cccc(F)c2c(=O)n1-c1ccccc1 [Idelalisib] + Nc1ncn([C@H]2C[C@H](O)[C@@H](CO)O2)c(=O)n1 [Decitabine] (partner 2 µM)
# Summary of the method: as §1
Cell Line,relative viability (Pemetrexed + Alpelisib; first compound 0.002 µM),relative viability (Pemetrexed + Alpelisib; first compound 0.006325 µM),relative viability (Pemetrexed + Alpelisib; first compound 0.02 µM),relative viability (Pemetrexed + Alpelisib; first compound 0.06325 µM),relative viability (Pemetrexed + Alpelisib; first compound 0.2 µM),relative viability (Pemetrexed + Vorinostat; first compound 0.002 µM),relative viability (Pemetrexed + Vorinostat; first compound 0.006325 µM),relative viability (Pemetrexed + Vorinostat; first compound 0.02 µM),relative viability (Pemetrexed + Vorinostat; first compound 0.06325 µM),relative viability (Pemetrexed + Vorinostat; first compound 0.2 µM),relative viability (Pemetrexed + OSI-027; first compound 0.002 µM),relative viability (Pemetrexed + OSI-027; first compound 0.006325 µM),relative viability (Pemetrexed + OSI-027; first compound 0.02 µM),relative viability (Pemetrexed + OSI-027; first compound 0.06325 µM),relative viability (Pemetrexed + OSI-027; first compound 0.2 µM),relative viability (Idelalisib + Decitabine; first compound 0.04 µM),relative viability (Idelalisib + Decitabine; first compound 0.1265 µM),relative viability (Idelalisib + Decitabine; first compound 0.4 µM),relative viability (Idelalisib + Decitabine; first compound 1.265 µM),relative viability (Idelalisib + Decitabine; first compound 4 µM)
201T,1.07,1.05,1.03,1,0.955,0.867,0.971,1.03,1.03,0.848,0.748,0.739,0.748,0.617,0.406,0.876,0.864,0.841,0.904,0.77
A549,0.695,0.682,0.946,0.785,0.774,–,–,–,–,–,–,–,–,–,–,0.263,0.281,0.21,0.345,0.247
A-427,1.09,1.1,1.05,1.1,1.04,0.855,0.865,0.867,0.876,0.708,0.422,0.431,0.481,0.466,0.402,0.57,0.564,0.545,0.562,0.507
ABC-1,1.13,0.937,1.28,1.03,0.87,1.07,1.68,1.18,1.33,1.1,0.515,0.359,0.736,0.529,0.512,1.03,1.2,1.08,1.17,1.15
BEN,1.09,1.02,1.03,0.989,0.774,0.6,0.578,0.587,0.573,0.555,0.318,0.301,0.302,0.296,0.332,0.736,0.649,0.757,0.775,0.694
CAL-12T,1.03,0.976,1.11,1.15,1.05,0.634,0.683,0.852,0.704,0.821,0.617,0.631,0.819,0.648,0.671,–,–,–,–,–
COR-L23,0.803,0.719,0.72,0.259,0.176,0.474,0.398,0.424,0.186,0.136,0.699,0.781,0.799,0.275,0.163,0.489,0.49,0.46,0.471,0.401
COR-L 105,0.93,0.708,1.08,0.891,0.909,0.954,0.784,0.849,0.857,0.688,0.735,0.638,1.01,0.646,0.619,0.567,0.667,0.513,0.615,0.642
Calu-6,0.995,1.01,1.05,0.918,0.954,–,–,–,–,–,–,–,–,–,–,–,–,–,–,–
ChaGo-K-1,–,–,–,–,–,0.721,0.735,0.751,0.293,0.233,0.572,0.59,0.61,0.317,0.23,0.515,0.404,0.524,0.538,0.46
EBC-1,0.747,0.848,0.939,0.836,0.518,–,–,–,–,–,–,–,–,–,–,–,–,–,–,–
EKVX,0.827,0.89,0.943,0.827,0.615,0.683,0.654,0.724,0.793,0.557,0.673,0.678,0.693,0.706,0.611,0.323,0.341,0.334,0.294,0.316
EMC-BAC-2,0.795,0.676,0.801,0.738,0.693,0.397,0.734,0.539,0.402,0.256,0.352,0.338,0.4,0.372,0.363,1,1.03,0.942,1.05,0.941
EPLC-272H,0.876,0.938,1.11,0.962,0.847,0.519,0.398,0.544,0.308,0.288,0.268,0.257,0.343,0.302,0.265,0.35,0.354,0.366,0.435,0.333
H3255,–,0.656,0.736,0.606,0.632,0.66,0.767,0.753,0.817,0.596,0.542,0.55,0.598,0.659,0.585,0.902,0.623,0.538,0.721,0.512
HARA,0.822,0.814,0.862,0.799,0.275,0.517,0.611,0.512,0.595,0.231,0.407,0.533,0.53,0.487,0.186,0.642,0.62,–,0.548,0.586
HCC-15,0.821,0.847,0.867,0.666,0.519,0.821,0.76,0.878,0.69,0.345,0.592,0.668,0.76,0.501,0.203,0.687,0.692,0.547,0.82,0.622
HCC-44,0.771,0.732,0.854,0.785,0.602,0.972,1.11,1.14,1.11,1.13,0.489,0.623,0.631,0.484,0.444,1.07,0.927,0.978,0.98,0.91
HCC-78,–,0.316,0.324,0.228,0.174,–,0.447,0.401,0.294,0.328,0.326,0.354,0.395,0.336,0.293,0.738,0.731,0.667,0.647,0.665
HCC-366,0.448,0.507,0.365,0.452,0.376,0.208,0.341,0.393,0.386,0.269,0.485,0.795,1.04,0.922,0.816,0.348,0.395,0.309,0.372,0.299

Cell Line,relative viability (Pemetrexed + Alpelisib; first compound 0.002 µM),relative viability (Pemetrexed + Alpelisib; first compound 0.006325 µM),relative viability (Pemetrexed + Alpelisib; first compound 0.02 µM),relative viability (Pemetrexed + Alpelisib; first compound 0.06325 µM),relative viability (Pemetrexed + Alpelisib; first compound 0.2 µM),relative viability (Pemetrexed + Vorinostat; first compound 0.002 µM),relative viability (Pemetrexed + Vorinostat; first compound 0.006325 µM),relative viability (Pemetrexed + Vorinostat; first compound 0.02 µM),relative viability (Pemetrexed + Vorinostat; first compound 0.06325 µM),relative viability (Pemetrexed + Vorinostat; first compound 0.2 µM),relative viability (Pemetrexed + OSI-027; first compound 0.002 µM),relative viability (Pemetrexed + OSI-027; first compound 0.006325 µM),relative viability (Pemetrexed + OSI-027; first compound 0.02 µM),relative viability (Pemetrexed + OSI-027; first compound 0.06325 µM),relative viability (Pemetrexed + OSI-027; first compound 0.2 µM),relative viability (Idelalisib + Decitabine; first compound 0.04 µM),relative viability (Idelalisib + Decitabine; first compound 0.1265 µM),relative viability (Idelalisib + Decitabine; first compound 0.4 µM),relative viability (Idelalisib + Decitabine; first compound 1.265 µM),relative viability (Idelalisib + Decitabine; first compound 4 µM)
HCC-827,0.891,0.977,0.996,1.07,0.726,0.764,0.912,0.959,0.515,0.426,0.663,0.756,0.899,0.764,0.591,0.379,0.246,0.347,0.331,0.286
HOP-62,0.842,0.868,0.896,0.847,0.957,0.387,0.581,0.721,0.626,0.547,0.728,0.856,0.936,0.825,0.729,0.277,0.199,0.262,0.231,0.235
IA-LM,0.797,0.716,0.737,0.771,0.67,0.95,0.988,1.1,0.808,0.982,–,–,–,–,–,–,–,–,–,–
LC-2-ad,0.888,0.936,0.833,0.232,0.187,0.657,0.671,0.663,0.319,0.27,0.606,0.831,0.561,0.28,0.339,0.789,0.797,0.811,0.825,0.711
LCLC-97TM1,0.265,0.2,0.257,0.173,0.237,0.711,0.559,0.765,0.803,0.163,0.552,0.361,0.61,0.477,0.235,0.254,0.223,0.269,0.262,0.226
LCLC-103H,0.971,0.992,1.04,1.01,0.959,0.663,0.753,0.857,0.881,0.763,0.409,0.474,0.549,0.463,0.553,0.693,0.707,0.692,0.795,0.679
LK-2,–,1.07,1.12,0.962,0.773,0.312,0.313,0.254,0.297,0.338,0.233,0.205,0.228,0.153,0.2,0.357,0.239,–,0.407,0.343
LOU-NH91,0.711,0.757,0.745,0.632,0.529,0.878,0.906,1.02,0.591,0.395,0.68,0.727,0.789,0.667,0.531,0.789,0.84,0.79,0.78,0.816
NCI-H522,–,–,–,–,–,0.801,0.871,1.09,0.797,0.927,0.794,0.65,0.796,0.706,0.676,0.665,0.67,0.645,0.631,0.698
NCI-H1299,1.07,1.03,1.01,1.01,1.06,–,–,–,–,–,–,–,–,–,–,–,–,–,–,–
NCI-H1563,0.904,0.922,0.976,0.875,0.954,–,–,–,–,–,0.731,0.695,0.803,0.728,0.778,–,–,–,–,–
NCI-H1623,–,–,–,–,–,–,–,–,–,–,0.406,0.451,0.552,0.462,0.426,–,–,–,–,–
NCI-H1648,–,–,–,–,–,0.397,0.138,0.399,0.465,0.551,0.253,0.268,0.22,–,0.26,0.512,0.58,0.536,0.507,0.429
NCI-H1650,–,–,–,–,–,0.521,0.671,0.634,0.443,0.234,0.674,0.531,0.714,0.356,0.304,0.456,0.465,0.515,0.359,0.448
NCI-H1703,0.319,0.38,0.333,0.338,0.379,–,–,–,–,–,–,–,–,–,–,–,–,–,–,–
NCI-H1792,0.685,0.731,0.806,0.788,0.634,–,–,–,–,–,0.735,0.808,0.778,0.715,0.744,0.505,0.599,0.514,0.558,0.472
NCI-H2228,0.833,0.721,0.752,0.474,0.319,0.807,0.493,0.749,0.413,0.296,0.506,–,0.566,0.565,0.218,–,–,–,–,–
NCI-H2342,–,–,–,–,–,0.824,0.831,0.749,0.773,0.843,0.537,0.618,0.593,0.633,0.698,0.802,0.764,0.658,0.668,0.618
SW 900,–,–,–,–,–,0.499,0.523,0.682,0.576,0.406,0.633,0.608,0.689,0.591,0.464,0.387,0.415,0.505,0.498,0.377

# Source: the supplement of paper PMC10307832
